For 24 compounds, IC50 results are on record in patent US11542492B2 (Celgene CAR LLC, priority 2009, dated 2023).

pIC50: −log10 of the molar value.

For this assay, the target named is T1, PDPK1 (Homo sapiens, UniProt O15530).
T1 sequence (O15530 1-556): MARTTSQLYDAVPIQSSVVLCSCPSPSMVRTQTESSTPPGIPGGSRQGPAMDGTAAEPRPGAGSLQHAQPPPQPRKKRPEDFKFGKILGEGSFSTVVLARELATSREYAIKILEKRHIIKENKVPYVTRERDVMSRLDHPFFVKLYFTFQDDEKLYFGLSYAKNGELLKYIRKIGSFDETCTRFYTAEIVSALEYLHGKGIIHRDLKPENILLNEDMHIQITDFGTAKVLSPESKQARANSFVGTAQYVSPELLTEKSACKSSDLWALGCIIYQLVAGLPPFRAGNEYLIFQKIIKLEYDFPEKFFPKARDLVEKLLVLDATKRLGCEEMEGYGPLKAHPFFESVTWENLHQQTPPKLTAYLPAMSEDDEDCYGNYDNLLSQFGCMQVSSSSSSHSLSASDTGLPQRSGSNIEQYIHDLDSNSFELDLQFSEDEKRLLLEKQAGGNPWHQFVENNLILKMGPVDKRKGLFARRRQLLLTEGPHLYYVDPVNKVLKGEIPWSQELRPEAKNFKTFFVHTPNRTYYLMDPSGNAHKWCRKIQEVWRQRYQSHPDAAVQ
The assay is described as follows: PDK1-OMNIA kinase assay (ST28-Sox peptide). It counts as biochemical. Further details: purchased Invitrogen, BPS or SignalChem P3001 (Invitrogen), 40080 (BPS), P14-10H (SignalChem). The conditions noted are these: PDPK1 enzyme pre-incubated 30 min at 25° C. with compound; [ATP]=5 μM; ST28-Sox peptide substrate; read-out: Inhibition/Modification Designation (IC50, PDK1-OMNIA). The procedure: Briefly, a 10× stock of PDPK1 enzyme from Invitrogen (P3001) or BPS (40080) or SignalChem (P14-10H), 1.13×ATP (AS001A) and ST28-Sox peptide substrate (KNZ1281C) were prepared in 1× kinase reaction buffer consisting of 20 mM Tris, pH 7.5, 5 mM MgCl2, 1 mM EGTA, 5 mM β-glycerophosphate, 5% glycerol (10× stock, KB002A) and 0.2 mM DTT (DS001A). 5 μL of enzyme were pre-incubated in a Corning (#3574) 384-well, white, non-binding surface microtiter plate (Corning, N.Y.) for 30 min at 25° C. with a 0.5 μL volume of 50% DMSO and serially diluted compounds prepared in 50% DMSO. Kinase reactions were started with the addition of 45 […] of the ST28-Sox peptide substrate and monitored every 71 seconds for 30-60 minutes at λex360/λem485 in a Synergy4 plate reader from BioTek (Winooski, Vt.). At the conclusion of each assay, progress curves from each well were examined for linear reaction kinetics and fit statistics (R^2, 95% confidence interval, absolute sum of squares). Post-lag velocity (+10 minutes to 20+ minutes) from each reaction was estimated from the slope of a plot of relative fluorescence units vs time (minutes) and normalized to the no enzyme and no inhibitor control groups for % Inhibition. The resulting inhibition values were then plotted against inhibitor concentration to estimate IC50 from log [Inhibitor] vs Response, Variable Slope model in GraphPad Prism from GraphPad Software (San Diego, Calif.).
[Reagent] used in provisional protocol(s): Invitrogen—[PDPK1]=5-10 nM, [ATP]=5 μM and [ST28-Sox]=5 μM or 10 μM (ATP KMapp=4-6 μM); BPS—[PDPK1]=10-15 nM, [ATP]=5 μM and [ST28-Sox]=10 μM (ATP KMapp=3-5 μM); SignalChem—[PDPK1]=5-10 nM, [ATP]=5 μM and [ST28-Sox]=5 μM or 10 μM (ATP KMapp ND)
Take `CC(C)(C(N)=O)C(=O)NCCCNc1nc(Nc2cccc(NC(=O)C3CCSC3=O)c2)ncc1Br` (stereo not drawn) [XI-23]: the pIC50 was 7.00 to 8.00.
With `CC(C)(C(N)=O)C(=O)NCCCNc1nc(Nc2cccc(NC(=O)CNC(=O)C3CCSC3=O)c2)ncc1Br` (stereo not drawn) [XI-24], the pIC50 was 7.00 to 8.00.
To `CC(C)(C(N)=O)C(=O)NCCCNc1nc(Nc2cccc(NC(=O)CCC(=O)Oc3ccccc3)c2)ncc1Br` [XI-25] belongs above 8.00.
Consider `CC(C)(C(N)=O)C(=O)NCCCNc1nc(Nc2cccc(NC(=O)C3CC(=O)CC(=O)C3)c2)ncc1Br` [XI-29], for which the pIC50 is 7.00 to 8.00.
For `COC1=CC(=O)CC(C(=O)Nc2cccc(Nc3ncc(Br)c(NCCCNC(=O)C(C)(C)C(N)=O)n3)c2)C1` (stereo not drawn) [XI-30], the pIC50 is 7.00 to 8.00.
The result for `C=CC(=O)NCC(=O)Nc1cccc(Nc2ncc(Br)c(NCCCNC(=O)C(C)(C)C(N)=O)n2)c1` [XI-31] reads 7.00 to 8.00.
Turning to `CC1(C)OC2C(=O)CC(C(=O)NCC(=O)Nc3cccc(Nc4ncc(Br)c(NCCCNC(=O)C(C)(C)C(N)=O)n4)c3)C2O1` (stereo not drawn) [XI-32], the pIC50 was 6.00 to 7.00.
`CC(C)(C(N)=O)C(=O)NCCCNc1nc(Nc2cccc(NC(=O)CC(N)C(=O)N3C[C@H]4C[C@@H]3C(=O)O4)c2)ncc1Br` (stereo partly drawn) [XI-33]: the pIC50 was 7.00 to 8.00.
To `CC(C)(C(N)=O)C(=O)NCCCNc1nc(Nc2cccc(NC(=O)CCC(=O)NC3CCSC3=O)c2)ncc1Br` (stereo not drawn) [XI-34] belongs 7.00 to 8.00.
Regarding `CC(C)(C(N)=O)C(=O)NCCCNc1nc(Nc2cccc(NC(=O)c3ccc4c(c3)CCC(=O)O4)c2)ncc1Br` [XI-36], the pIC50 was 7.00 to 8.00.
To `CC(C)(C(N)=O)C(=O)NCCCNc1nc(Nc2cccc(NC(=O)CNC(=O)[C@@H]3CCC(=O)O3)c2)ncc1Br` [XI-37] belongs 7.00 to 8.00; to `CC(C)(C(N)=O)C(=O)NCCCNc1nc(Nc2ccc(CCC(=O)N3C[C@H]4C[C@@H]3C(=O)O4)cc2)ncc1Br` [XI-40], above 8.00; to `CC(C)(C(N)=O)C(=O)NCCCNc1nc(Nc2ccc(CCC(=O)N3C[C@@H]4C[C@H]3C(=O)O4)cc2)ncc1Br` [XI-41], above 8.00.
`CC(C)(C(N)=O)C(=O)NCCCNc1nc(Nc2ccc(NC(=O)[C@H]3CCC(=O)O3)cc2)ncc1Br` [XI-42]: the pIC50 is 7.00 to 8.00.
To `CC(C)(C(N)=O)C(=O)NCCCNc1nc(Nc2ccc(NC(=O)[C@@H]3CCC(=O)O3)cc2)ncc1Br` [XI-43] belongs 6.00 to 7.00.
To `CC(C)(C(N)=O)C(=O)NCCCNc1nc(Nc2cccc(CCC(=O)N3C[C@@H]4C[C@H]3C(=O)O4)c2)ncc1Br` [XI-44] belongs 7.00 to 8.00; to `CC(C)(C(N)=O)C(=O)NCCCNc1nc(Nc2cccc(CCC(=O)N3C[C@H]4C[C@@H]3C(=O)O4)c2)ncc1Br` [XI-45], 7.00 to 8.00; to `CC(C)(C(N)=O)C(=O)NCCCNc1nc(Nc2cccc(N3C(=O)CCC3=O)c2)ncc1Br` [XI-46], 7.00 to 8.00.
`CON1C[C@H](NC(=O)CCC(=O)Nc2cccc(Nc3ncc(Br)c(NCCCNC(=O)C(C)(C)C(N)=O)n3)c2)C1=O` [XI-47]: the pIC50 is above 8.00.
`CC(C)(C(N)=O)C(=O)NCCCNc1nc(Nc2cccc(NC(=O)CCC(=O)N3C[C@@H]4CC3C(=O)O4)c2)ncc1Br` [XI-48]: the pIC50 is above 8.00.
To `CC(C)(C(N)=O)C(=O)NCCCNc1nc(Nc2cccc(NC(=O)[C@H]3CCC(=O)O3)c2)ncc1Br` [XI-50] belongs 7.00 to 8.00.
To `CC(C)(C(N)=O)C(=O)NCCCNc1nc(Nc2cccc(NC(=O)[C@@H]3CCC(=O)O3)c2)ncc1Br` [XI-52] belongs 7.00 to 8.00.
To `CC(C)(C(N)=O)C(=O)NCCCNc1nc(Nc2cccc(NC(=O)CCC(=O)N3CCC3=O)c2)ncc1Br` [XI-55] belongs above 8.00.
As for `CC(C)(C(N)=O)C(=O)NCCCNc1nc(Nc2cccc(NC(=O)CC(NC(=O)CCCC(=O)NCCCOCCOCCOCCCNC(=O)CCCC[C@@H]3SC[C@@H]4NC(=O)N[C@@H]43)C(=O)N3C[C@H]4C[C@@H]3C(=O)O4)c2)ncc1Br` (stereo partly drawn) [XI-56], the pIC50 is 6.00 to 7.00.
